“Also recorded” adds a separate entry of the source. Where a name gives a salt, the structure may show the parent alone.
Legend:
CYP1A2 = target: T1, CYP1A2 (Homo sapiens, UniProt P05177); experiment: Cytochrome P450 inhibition assay, CYP1A2; type: in vitro ADME
T1 construct: Eurofins Panlabs, Inc. (contract laboratory)
T1 sequence (P05177 1-516): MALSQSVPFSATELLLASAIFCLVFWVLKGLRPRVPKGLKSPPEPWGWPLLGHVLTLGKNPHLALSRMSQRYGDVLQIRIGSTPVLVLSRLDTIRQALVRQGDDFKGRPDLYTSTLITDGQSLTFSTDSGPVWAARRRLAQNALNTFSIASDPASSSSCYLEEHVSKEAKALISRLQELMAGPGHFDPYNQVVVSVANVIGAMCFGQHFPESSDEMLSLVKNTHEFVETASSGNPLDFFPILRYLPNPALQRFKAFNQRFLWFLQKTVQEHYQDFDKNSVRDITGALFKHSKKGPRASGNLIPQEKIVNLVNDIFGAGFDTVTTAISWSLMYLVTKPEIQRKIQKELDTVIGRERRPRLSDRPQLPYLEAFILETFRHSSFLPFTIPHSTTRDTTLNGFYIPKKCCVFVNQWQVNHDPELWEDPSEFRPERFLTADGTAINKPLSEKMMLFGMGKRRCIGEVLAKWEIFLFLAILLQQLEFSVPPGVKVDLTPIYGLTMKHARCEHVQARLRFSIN
Experimental: (§1) The ADMET assessment including the hERG inhibitory activity, plasma protein binding, in vitro metabolic stability profile, CYP inhibitory effect and mutagenic evaluation were conducted by Eurofins Panlabs, Inc.[21],[61],[69]−[71]

KOR = target: T2, KOR (Mus musculus, UniProt P33534); experiment: KOR [35S]GTPγS functional assay; type: biochemical
T2 construct: expressed in transfected cells; host or cells: CHO (KOR-CHO), membrane preparation
Experimental: (§2) The [^35S]GTPγS functional assay was used to assess the efficacy of compounds at the MOR, KOR, and DOR. In this assay, 10 μg of MOR-CHO/KOR-CHO/DOR-CHO membrane protein was incubated in 500 μL of TME with 100 mM NaCl, 20 μM GDP, 0.1 nM [^35S]GTPγS, and varying concentrations of the compound for 1.5 h in a 30 °C water bath. Protein concentration was adjusted using the Bradford protein assay. […] After incubation, bound radioactivity was separated by filtration through GF/B glass fiber filters and measured by liquid scintillation counting. All assays were performed in duplicate and repeated at least three times. Net stimulated [35S]GTPγS binding was calculated as agonist-stimulated minus basal binding.

[1] = Plasma protein binding, Sprague-Dawley rat; type: in vitro ADME
Experimental: as §1

CYP3A4 = target: T3, CYP3A4 (Homo sapiens, UniProt P08684); experiment: Cytochrome P450 inhibition assay, CYP3A4; type: in vitro ADME
T3 construct: Eurofins Panlabs, Inc. (contract laboratory)
Experimental: as §1

MOR = target: T4, MOR (Mus musculus, UniProt P42866); experiment: MOR calcium flux assay in Gαqi5-transfected mMOR-CHO cells; type: cell-based
T4 construct: expressed in transfected cells; host or cells: CHO (MOR-CHO), membrane preparation
Experimental: Ligands were initially tested at various concentrations (0.3 nM to 3 μM) for potential agonist activity in MOR-CHO cells. These cells were transfected with Gqi5 pcDNA1 using Lipofectamine 2000 (Invitrogen) following the manufacturer’s protocol. […] Peak values were obtained using SoftMaxPro software (Molecular Devices), and IC50 values were calculated by generating nonlinear regression curves using GraphPad Prism. Each dose was tested in triplicates, and the experiment was repeated at least four times to calculate standard errors.

δ opioid receptor (DOR) = target: T5, δ opioid receptor (DOR) (Homo sapiens, UniProt P41143); experiment: Competitive radioligand binding assay, DOR
T5 construct: expressed in transfected cells; host or cells: CHO (hDOR-CHO), membrane preparation
Experimental: The competition binding assay was performed using monoclonal mouse opioid receptors expressed in CHO cell lines (monoclonal human δ opioid receptor was used for the DOR assay).
The bound radioligand was separated using a Brandel harvester. Specific binding to the MOR, KOR, and DOR was calculated by subtracting the binding observed in the presence of 5 μM naltrexone, U50488, and SNC80, respectively, from the binding in their absence. Relative affinity values (IC50) were determined by fitting displacement binding inhibition data to a nonlinear regression model using GraphPad Prism 8.0 (GraphPad Software, San Diego, CA). The % inhibition was calculated using the formula: % inhibition = 100% - [(binding with the tested compound - nonspecific binding)/specific binding] × 100%. The IC50 values were converted to Ki values using the Cheng-Prusoff equation: Ki = IC50/ [1 + ([L*]/KD)], where [L*] is the concentration of the radioligand and KD is the KD of the radioligand.[68]

[2] = In vitro metabolic stability in human liver microsomes; type: in vitro ADME; details: 1.0E-07 M
Experimental: as §1

morphine-pelleted mice = experiment: In vivo opioid withdrawal studies in morphine-pelleted mice; set-up: species or system mouse
Experimental: Swiss Webster mice (six males per group, weighing 25–35 g and aged 6–8 weeks) were used. Following a previously established protocol,[20] a 75 mg morphine pellet was implanted subcutaneously into the back of each mouse, and they were allowed to recover in their home cages. Prior to testing, the mice were habituated for 30 min in an open-topped, clear Plexiglas observation chamber (26 × 26 × 26 cm^3) with lines marking the floor into quadrants. […]. Withdrawal symptoms began within 3 min of antagonist administration. Escape jumps, paw tremors, and wet dog shakes were recorded by counting their occurrences over a 20 min period for each mouse. Results are expressed as the mean ± SEM.

DOR = target: T6, DOR (Homo sapiens, UniProt P41143); experiment: DOR [35S]GTPγS functional assay; type: biochemical
T6 construct: expressed in transfected cells; host or cells: CHO (DOR-CHO), membrane preparation
Experimental: as §2

hERG potassium channel = hERG potassium channel (Homo sapiens, UniProt Q12809); experiment: hERG inhibitory activity assay (automated patch-clamp, CHO-K1 cells)
Experimental: On the day of the assay, a dish of cells was removed from the incubator, washed twice with extracellular solution at room temperature, and applied to automated patch-clamp sites. After achieving a whole-cell configuration, the membrane potential was held at −80 mV. A 50 ms pulse to −40 mV was applied to measure leak current, which was subtracted from the tail current in real time. […] This sequence was repeated every 5 s to track the current amplitude. The assay was performed at room temperature, with extracellular solution applied first to stabilize the cell for 5 min. […] Peak tail currents were recorded and plotted against sweep number. The control current amplitude was calculated by averaging five peak tail current measurements at steady state before compound application. The remaining current amplitude after compound inhibition was determined by averaging four to five peak tail current measurements at steady state after compound application.
Percent inhibition was calculated according to the following equation:

Swiss Webster mice = experiment: Warm-water tail immersion assay, antagonism of morphine-induced antinociception
Experimental: The antinociceptive effect of newly synthesized compounds was evaluated using the warm-water tail immersion assay. […] In the agonism study, compounds were injected subcutaneously (s.c.) and the tail immersion test was performed 20 min later, with a 10 s maximum cutoff to prevent tissue damage. Antinociception was calculated as % MPE = [(test–control latency)/(10–control latency)] × 100. For antagonist effects, compounds were injected 5 min before morphine, and the test was conducted 20 min after morphine administration.

[3] = Plasma protein binding, human; type: in vitro ADME
Experimental: as §1

[4] = 5 mg/kg s.c., counted over 20 min
[5] = human, CHO-K1 cells stably expressing hERG

T4 sequence (P42866 whole entry): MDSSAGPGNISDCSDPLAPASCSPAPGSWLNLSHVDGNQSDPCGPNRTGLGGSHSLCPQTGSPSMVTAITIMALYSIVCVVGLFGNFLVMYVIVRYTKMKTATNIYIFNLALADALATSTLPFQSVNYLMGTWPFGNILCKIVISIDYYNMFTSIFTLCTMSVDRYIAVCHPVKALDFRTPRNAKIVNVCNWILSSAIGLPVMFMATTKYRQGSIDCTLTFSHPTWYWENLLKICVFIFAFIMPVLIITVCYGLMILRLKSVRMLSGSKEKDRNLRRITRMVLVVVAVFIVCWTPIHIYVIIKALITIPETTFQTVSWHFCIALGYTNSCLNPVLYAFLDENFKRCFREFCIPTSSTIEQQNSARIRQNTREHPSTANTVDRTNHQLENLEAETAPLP
Chain of hERG potassium channel (Q12809 whole entry): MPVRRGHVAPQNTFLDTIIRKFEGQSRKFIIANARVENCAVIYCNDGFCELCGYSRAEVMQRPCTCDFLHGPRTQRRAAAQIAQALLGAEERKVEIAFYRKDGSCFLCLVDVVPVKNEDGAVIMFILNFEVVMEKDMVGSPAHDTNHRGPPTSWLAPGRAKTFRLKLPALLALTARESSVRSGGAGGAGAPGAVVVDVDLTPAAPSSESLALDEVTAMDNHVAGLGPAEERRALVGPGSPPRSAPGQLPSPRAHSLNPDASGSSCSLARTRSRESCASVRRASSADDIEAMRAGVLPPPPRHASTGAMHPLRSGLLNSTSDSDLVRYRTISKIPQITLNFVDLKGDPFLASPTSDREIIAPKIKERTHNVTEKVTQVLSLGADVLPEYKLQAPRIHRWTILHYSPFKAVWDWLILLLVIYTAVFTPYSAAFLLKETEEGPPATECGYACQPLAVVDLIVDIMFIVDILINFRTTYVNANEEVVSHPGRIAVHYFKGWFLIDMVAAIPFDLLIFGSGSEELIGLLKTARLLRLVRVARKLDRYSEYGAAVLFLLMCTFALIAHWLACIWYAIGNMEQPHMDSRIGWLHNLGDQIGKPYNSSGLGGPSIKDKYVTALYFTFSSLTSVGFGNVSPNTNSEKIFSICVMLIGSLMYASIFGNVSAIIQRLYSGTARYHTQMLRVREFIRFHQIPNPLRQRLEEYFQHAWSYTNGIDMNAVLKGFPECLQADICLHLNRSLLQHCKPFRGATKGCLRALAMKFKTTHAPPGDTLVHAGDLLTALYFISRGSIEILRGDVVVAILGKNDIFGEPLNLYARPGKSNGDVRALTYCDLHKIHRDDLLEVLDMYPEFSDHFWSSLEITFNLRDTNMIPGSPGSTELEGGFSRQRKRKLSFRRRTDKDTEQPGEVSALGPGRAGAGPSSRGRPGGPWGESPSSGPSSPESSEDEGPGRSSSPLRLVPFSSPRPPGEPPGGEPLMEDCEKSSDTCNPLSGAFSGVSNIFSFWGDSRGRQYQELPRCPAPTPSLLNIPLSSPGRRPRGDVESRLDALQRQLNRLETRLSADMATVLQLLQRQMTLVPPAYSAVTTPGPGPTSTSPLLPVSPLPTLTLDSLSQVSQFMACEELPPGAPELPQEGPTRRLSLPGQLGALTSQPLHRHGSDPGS
T2 sequence (P33534 whole entry): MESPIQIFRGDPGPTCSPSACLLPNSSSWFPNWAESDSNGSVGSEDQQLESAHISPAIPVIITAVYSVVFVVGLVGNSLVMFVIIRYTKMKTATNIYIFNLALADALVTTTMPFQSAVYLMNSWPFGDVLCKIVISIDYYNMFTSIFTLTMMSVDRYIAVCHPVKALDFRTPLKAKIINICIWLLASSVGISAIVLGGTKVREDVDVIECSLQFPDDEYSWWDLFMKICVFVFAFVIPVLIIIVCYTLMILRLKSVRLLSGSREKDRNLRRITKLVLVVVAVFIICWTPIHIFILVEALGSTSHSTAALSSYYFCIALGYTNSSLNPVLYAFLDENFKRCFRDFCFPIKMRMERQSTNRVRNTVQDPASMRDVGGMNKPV
T3 sequence (P08684 whole entry): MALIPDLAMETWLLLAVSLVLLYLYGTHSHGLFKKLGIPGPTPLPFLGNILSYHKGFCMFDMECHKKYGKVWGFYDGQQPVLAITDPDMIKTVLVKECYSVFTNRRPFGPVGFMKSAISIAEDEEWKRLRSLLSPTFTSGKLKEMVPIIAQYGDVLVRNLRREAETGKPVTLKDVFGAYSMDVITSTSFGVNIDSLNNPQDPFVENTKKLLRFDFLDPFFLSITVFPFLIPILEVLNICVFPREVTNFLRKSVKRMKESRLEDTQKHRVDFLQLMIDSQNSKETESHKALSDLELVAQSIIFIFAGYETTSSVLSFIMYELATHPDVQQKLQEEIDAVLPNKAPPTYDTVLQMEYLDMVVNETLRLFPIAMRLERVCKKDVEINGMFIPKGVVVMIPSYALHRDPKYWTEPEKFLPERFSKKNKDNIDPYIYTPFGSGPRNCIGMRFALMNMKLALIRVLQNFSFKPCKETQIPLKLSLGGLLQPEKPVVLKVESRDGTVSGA
T6 sequence (P41143 whole entry): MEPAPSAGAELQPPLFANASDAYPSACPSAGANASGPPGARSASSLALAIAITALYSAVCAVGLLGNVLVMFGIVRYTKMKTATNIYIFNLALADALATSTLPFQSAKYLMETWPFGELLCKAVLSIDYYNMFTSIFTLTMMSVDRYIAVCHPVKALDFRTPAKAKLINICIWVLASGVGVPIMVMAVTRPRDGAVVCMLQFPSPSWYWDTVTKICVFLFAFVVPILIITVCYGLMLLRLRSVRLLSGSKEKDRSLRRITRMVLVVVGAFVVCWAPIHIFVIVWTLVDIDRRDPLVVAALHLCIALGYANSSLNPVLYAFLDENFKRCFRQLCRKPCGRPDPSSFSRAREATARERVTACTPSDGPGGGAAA
T5 sequence (P41143 whole entry): as above

## O=C(N[C@H]1CC[C@@]2(O)[C@H]3Cc4ccc(O)c5c4[C@@]2(CCN3CC2CC2)[C@H]1O5)c1nccs1 [Compound 6, 17-Cyclopropylmethyl-3,14β-dihydroxy-4,5α-epoxy-6α-(2′-thiazolylcarboxamido)-morphinan hydrochloride]
CYP1A2; 1.0E-05 M
  inhibition at 10 µM: 7.4%
CYP1A2; 1.0E-07 M
  inhibition at 100 nM: 11.4%
KOR
  EC50: 3.83 ± 0.62 nM
KOR; relative to 3 μM U50488H, mean ± SEM, read-out: KOR [35S]GTPγS binding % Emax of U50488H
  Emax: 23.5 ± 2.03%
[1]
  fraction unbound: 0.4
CYP3A4; 1.0E-05 M
  inhibition at 10 µM: 23.5%
CYP3A4; 1.0E-07 M
  inhibition at 100 nM: 10.1%
MOR
  IC50: 5.64 ± 0.24 nM
MOR; compared to full MOR agonist DAMGO
  Agonistic activity in increasing intracellular calcium, in words: no apparent agonism; also recorded: none of them showed any significant agonistic activity
δ opioid receptor (DOR)
  Ki: 41.1 ± 3.58 nM
δ opioid receptor (DOR); ratio of Ki values
  Selectivity δ/μ: 164
[2]
  half-life at 100 nM: > 1 h
  microsomal CLint at 100 nM: < 38.5 µL/min/mg
[2]; 15 min
  % Compound Remaining, mean: 101%
[2]; 30 min
  % Compound Remaining, mean: 101%
[2]; 45 min
  % Compound Remaining, mean: 103%
[2]; 60 min
  % Compound Remaining, mean: 97%
morphine-pelleted mice; [4]
  Jumps, mean count: 36.8
  Paw tremors, mean count: 30.2
  Wet dog shake, mean count: 9.8
morphine-pelleted mice; s.c.
  Precipitated withdrawal symptoms, in words: fewer wet dog shakes and paw tremors at all testing doses than 1 mg/kg NLX
DOR
  EC50: 23.6 ± 4.29 nM
DOR; relative to 3 μM SNC80, mean ± SEM, read-out: DOR [35S]GTPγS binding % Emax of SNC80
  Emax: 46.5 ± 2.17%
hERG potassium channel
  IC50: 7400 nM
hERG potassium channel; [5]
  inhibition at 10 nM: 2.6%
  inhibition at 100 nM: 6%
  inhibition at 1 µM: 18.5%
  inhibition at 10 µM: 55.5%
  inhibition at 0.0001 M: 86.8%
Swiss Webster mice; mice, s.c., given 5 min before morphine
  AD50 (95% CL) for counteracting morphine-induced antinociception: 0.043 (0.007–0.25) mg/kg
Swiss Webster mice; single dose of 10 mg/kg s.c. in the presence of morphine (10 mg/kg), n = 6
  Antagonism of morphine's antinociception, in words: significantly antagonized
[3]
  fraction unbound: 0.56
